Patent US7994192B2, “Substituted thienopyridone compounds with antibacterial activity” (Crestone, Inc., priority 2006, dated 2011)

Experiments:
C. difficile [1] = test: C. difficile-infected hamster survival study; type: in vivo
Experimental: Animal studies were performed to determine the efficacy of MetRS inhibitors for treating C. difficile-infections. The MetRS inhibitors tested were 5-[3-((R)-6,8-Dibromo-chroman-4-ylamino)-propylamino]-4H-thieno[3,2-b]pyridine-7-one (both racemic mixture and the R enantiomer) and 5-[3-((R)-8-Bromo-6-chloro-chroman-4-ylamino)-propylamino]-4H-thieno[3,2-b]pyridin-7-one. Also tested was 2-(3-{3,5-Dibromo-2-[2-(4-methyl-thiazol-5-yl)-ethoxy]-benzylamino}-propylamino)-1H-quinolin-4-one.
Results were compared to C. difficile-infected hamsters treated with the conventional antibiotic, vancomycin. Infected hamsters were treated with either a solution or suspension of a MetRS inhibitor at 5 to 50 mg/kg or vancomycin at 2.5, 5 or 25 mg/kg. There were eight hamsters per group with the final endpoint of the experiment being survival. Expired hamsters were examined for GI condition.

C. difficile [2] = test: Sporulation of C. difficile clinical isolates on agar containing compound; type: cell-based

O=c1cc(NCCCN[C@@H]2CCOc3c(Br)cc(Br)cc32)[nH]c2ccsc12 [5-[3-((R)-6,8-Dibromo-chroman-4-ylamino)-propylamino]-4H-thieno[3,2-b]pyridine-7-one]
survival on Day 28 (C. difficile [1]; 5 mg/kg BID): > 60% | efficacy ranking among the MetRS inhibitors tested (C. difficile [1]; hamster, in vivo): best efficacy | spores (share of total cells) (C. difficile [2]; 0.25×MIC, 96 hours, all strains): < 2% | spores (share of total cells) (C. difficile [2]; 0.5×MIC, 96 hours, all strains): < 1%

CN[C@H](CC(C)C)C(=O)N[C@H]1C(=O)N[C@@H](CC(N)=O)C(=O)N[C@H]2C(=O)N[C@H]3C(=O)N[C@H](C(=O)N[C@H](C(=O)O)c4cc(O)cc(O)c4-c4cc3ccc4O)[C@H](O)c3ccc(c(Cl)c3)Oc3cc2cc(c3O[C@@H]2O[C@H](CO)[C@@H](O)[C@H](O)[C@H]2O[C@H]2C[C@](C)(N)[C@H](O)[C@H](C)O2)Oc2ccc(cc2Cl)[C@H]1O [vancomycin, reference compound]
survival on Day 28 (C. difficile [1]; vancomycin treatment, dose not given in the sentence (2.5, 5 or 25 mg/kg used)): 0-10%

Cc1ncc([N+](=O)[O-])n1CCO [metronidazole, reference compound]
spores (share of total cells) (C. difficile [2]; subMIC concentrations, all tested strains): up to 100%
